Data reported in patent US10829796B2, “Bacteria identification and antimicrobial susceptibility test” (priority 2015, dated 2020).

How the values were obtained:
Type in all cases: cell-based
Staphylococcus aureus = assay: Antibiotic susceptibility testing (colour of media), spiked milk; details: bacteria sample 5c
Protocol: Tables 36 to 38 which follow show further examples of antibiotic susceptibility testing performed in accordance with the present invention. Table 36, antibiotic susceptibility testing of Staphylococcus aureus in Mueller Hinton and Tryptic Soy Broth at pre-incubation and at between 15-24 h. Tables 37 and 38, antimicrobial susceptibility testing of Streptococcus uberis and E. coli with the addition of gram negative specific antibiotic aztreonam. Tables 38 to 49 show further examples of antibiotic susceptibility testing and the outcomes are aligned with the described inventions.

Streptococcus uberis [1] = assay: Group D Streptococci identification, esculin/ferric citrate in TSB (blackening = growth), bacteria in milk; details: TSB containing 0.5% esculin and 0.25% ferric citrate + 80 uL spiked milk; 100 ug/ml aztreonam and/or 0.5 mg/mL phenol red
Protocol: By way of illustration, the same experiment was conducted as above, only this time using clinical milk samples obtained from a bovine animal suspect of being infected with mastitis.
However, Applicant has discovered that increased amounts of esculin and ferric citrate may be used in milk derived clinical samples. For example, at concentrations of at least 2% esculin and 1% ferric citrate, the growth of Streptococcus uberis is not inhibited.
Note, in the experiments above, the clinical sample tested was milk obtained from a bovine animal suspected of being infected by mastitis. If a non-milk clinical sample were to be tested, then inclusion of a stabilizing agent (e.g. milk in the form of a liquid or powder) would be required in order to suppress the growth inhibitory effect of esculin and ferric citrate at the higher concentrations used according to this invention.
Applicant further discovered that TSB containing 0.5% esculin and 0.25% ferric citrate and 80 uL of spiked Streptococcus uberis milk sample which also contained 100 ug/ml aztreonam concentration (antibiotic which has activity against many gram-bacteria such as E. coli) and/or in combination with 0.5 mg/mL phenol red led to easy detectable colour changes. No inhibition of Streptococcus uberis due to phenol red or aztreonam was detected.

Streptococcus uberis [2] = assay: Colour change of enrichment media with pH indicator, bacteria in milk (stabilizing agent); details: excess concentration (Table 4e, 0.04%) in presence of milk; all inoculums investigated
Source text: The present invention overcomes these limitations through inclusion of one or more stabilizing agents which suppresses the potential inhibitory effect of the colour based pH indicator. As such, increased concentrations of the colour based pH indicator (e.g. phenol red) may be used in the test, thereby achieving stability in the colour change associated with bacteria growth. An example of a stabilizing agent according to the present invention is milk.
In this Example, liquid culture media is used which allows early and easy identification of susceptible antimicrobials to support decision of antimicrobial selection to treat bacterial infections. It also allows the detection of bacteria such as gram+ and/or gram-bacteria in clinical samples are present and/or allows estimation of the inoculum from kinetic analyses of colour change. The base of this liquid culture medium is a general purpose liquid enrichment medium for example tryptic soy broth (Soybean-Casein Digest Medium) but could also be Mueller Hinton broth. This TSB media has excess concentration of a pH indicator such as phenol red and/or bromocresol purple and milk. […] Colorimetric analyses can performed by the naked eye or by an optical reader for example via CCD camera chip or photo diode. […]

[3] = T = 0 hours (pre incubation), drug 0.01 μg/ml, Mueller Hinton (70 ul composition 26)
[4] = T = 0 hours (pre incubation), drug 0.05 μg/ml, Mueller Hinton (70 ul composition 26)
[5] = T = 0 hours (pre incubation), drug 0.1 μg/ml, Mueller Hinton (70 ul composition 26)
[6] = T = 0 hours (pre incubation), drug 0.5 μg/ml, Mueller Hinton (70 ul composition 26)
[7] = T = 0 hours (pre incubation), drug 1 μg/ml, Mueller Hinton (70 ul composition 26)
[8] = T = 0 hours (pre incubation), drug 5 μg/ml, Mueller Hinton (70 ul composition 26)
[9] = T = 0 hours (pre incubation), drug 10 μg/ml, Mueller Hinton (70 ul composition 26)
[10] = T = 0 hours (pre incubation), drug 50 μg/ml, Mueller Hinton (70 ul composition 26)
[11] = T = 0 hours (pre incubation), drug 100 μg/ml, Mueller Hinton (70 ul composition 26)
[12] = T = 0 hours (pre incubation), drug 500 μg/ml, Mueller Hinton (70 ul composition 26)
[13] = T = 15-24 h at 35° C., drug 0.01 μg/ml, Mueller Hinton (70 ul composition 26)
[14] = T = 15-24 h at 35° C., drug 0.05 μg/ml, Mueller Hinton (70 ul composition 26)
[15] = T = 15-24 h at 35° C., drug 0.1 μg/ml, Mueller Hinton (70 ul composition 26)
[16] = T = 15-24 h at 35° C., drug 0.5 μg/ml, Mueller Hinton (70 ul composition 26)
[17] = T = 15-24 h at 35° C., drug 1 μg/ml, Mueller Hinton (70 ul composition 26)
[18] = T = 15-24 h at 35° C., drug 5 μg/ml, Mueller Hinton (70 ul composition 26)
[19] = T = 15-24 h at 35° C., drug 10 μg/ml, Mueller Hinton (70 ul composition 26)
[20] = T = 15-24 h at 35° C., drug 50 μg/ml, Mueller Hinton (70 ul composition 26)
[21] = T = 15-24 h at 35° C., drug 100 μg/ml, Mueller Hinton (70 ul composition 26)
[22] = T = 15-24 h at 35° C., drug 500 μg/ml, Mueller Hinton (70 ul composition 26)

Structure (SMILES)	Colour of media (Staphylococcus aureus; [3])	Colour of media (Staphylococcus aureus; [4])	Colour of media (Staphylococcus aureus; [5])	Colour of media (Staphylococcus aureus; [6])	Colour of media (Staphylococcus aureus; [7])	Colour of media (Staphylococcus aureus; [8])	Colour of media (Staphylococcus aureus; [9])	Colour of media (Staphylococcus aureus; [10])	Colour of media (Staphylococcus aureus; [11])	Colour of media (Staphylococcus aureus; [12])	Colour of media (Staphylococcus aureus; [13])	Colour of media (Staphylococcus aureus; [14])	Colour of media (Staphylococcus aureus; [15])	Colour of media (Staphylococcus aureus; [16])	Colour of media (Staphylococcus aureus; [17])	Colour of media (Staphylococcus aureus; [18])	Colour of media (Staphylococcus aureus; [19])	Colour of media (Staphylococcus aureus; [20])	Colour of media (Staphylococcus aureus; [21])	Colour of media (Staphylococcus aureus; [22])	also measured
CC1=C(C(=O)O)N2C(=O)[C@@H](NC(=O)[C@H](N)c3ccccc3)[C@H]2SC1 [Cephalexin]	red	red	red	red	red	red	red	red	red	red	yellow	yellow	yellow	yellow	red	red	red	red	red	red	
O=S1(=O)OC(c2ccc(O)cc2)(c2ccc(O)cc2)c2ccccc21 [phenol red]																					Inhibition of Streptococcus uberis (Streptococcus uberis [1]): No inhibition
Cc1cc(C2(c3cc(C)c(O)c(Br)c3)OS(=O)(=O)c3ccccc32)cc(Br)c1O [bromocresol purple]																					Growth inhibition (Streptococcus uberis [2]): does not inhibit growth
NC[C@@H]1O[C@H](O[C@H]2[C@@H](O)[C@H](O[C@@H]3[C@@H](O)[C@H](N)C[C@H](N)[C@H]3O[C@H]3O[C@H](CN)[C@@H](O)[C@H](O)[C@H]3N)O[C@@H]2CO)[C@H](N)[C@@H](O)[C@@H]1O [Neomycin]	red	red	red	red	red	red	red	red	red	red	yellow	yellow	yellow	yellow	yellow	red	red	red	red	red	
CN[C@@H]1[C@H](O[C@H]2[C@H](O[C@H]3[C@H](O)[C@@H](O)[C@H](NC(=N)N)[C@@H](O)[C@@H]3NC(=N)N)O[C@@H](C)[C@]2(O)CO)O[C@@H](CO)[C@H](O)[C@H]1O [Dihydrostreptomycin]																					Colour of media (Staphylococcus aureus; T = 0 hours (pre incubation), drug 0.01 μg/ml, Tryptic Soy (70 ul composition 2c)): red; Colour of media (Staphylococcus aureus; T = 0 hours (pre incubation), drug 0.05 μg/ml, Tryptic Soy (70 ul composition 2c)): red; Colour of media (Staphylococcus aureus; T = 0 hours (pre incubation), drug 0.1 μg/ml, Tryptic Soy (70 ul composition 2c)): red; Colour of media (Staphylococcus aureus; T = 0 hours (pre incubation), drug 0.5 μg/ml, Tryptic Soy (70 ul composition 2c)): red; Colour of media (Staphylococcus aureus; T = 0 hours (pre incubation), drug 1 μg/ml, Tryptic Soy (70 ul composition 2c)): red; Colour of media (Staphylococcus aureus; T = 0 hours (pre incubation), drug 5 μg/ml, Tryptic Soy (70 ul composition 2c)): red; Colour of media (Staphylococcus aureus; T = 0 hours (pre incubation), drug 10 μg/ml, Tryptic Soy (70 ul composition 2c)): red; Colour of media (Staphylococcus aureus; T = 0 hours (pre incubation), drug 50 μg/ml, Tryptic Soy (70 ul composition 2c)): red; Colour of media (Staphylococcus aureus; T = 0 hours (pre incubation), drug 100 μg/ml, Tryptic Soy (70 ul composition 2c)): red; Colour of media (Staphylococcus aureus; T = 0 hours (pre incubation), drug 500 μg/ml, Tryptic Soy (70 ul composition 2c)): red; Colour of media (Staphylococcus aureus; T = 15-24 h at 35° C., drug 0.01 μg/ml, Tryptic Soy (70 ul composition 2c)): yellow; Colour of media (Staphylococcus aureus; T = 15-24 h at 35° C., drug 0.05 μg/ml, Tryptic Soy (70 ul composition 2c)): yellow; Colour of media (Staphylococcus aureus; T = 15-24 h at 35° C., drug 0.1 μg/ml, Tryptic Soy (70 ul composition 2c)): yellow; Colour of media (Staphylococcus aureus; T = 15-24 h at 35° C., drug 0.5 μg/ml, Tryptic Soy (70 ul composition 2c)): yellow; Colour of media (Staphylococcus aureus; T = 15-24 h at 35° C., drug 1 μg/ml, Tryptic Soy (70 ul composition 2c)): yellow; Colour of media (Staphylococcus aureus; T = 15-24 h at 35° C., drug 5 μg/ml, Tryptic Soy (70 ul composition 2c)): yellow; Colour of media (Staphylococcus aureus; T = 15-24 h at 35° C., drug 10 μg/ml, Tryptic Soy (70 ul composition 2c)): yellow; Colour of media (Staphylococcus aureus; T = 15-24 h at 35° C., drug 50 μg/ml, Tryptic Soy (70 ul composition 2c)): yellow; Colour of media (Staphylococcus aureus; T = 15-24 h at 35° C., drug 100 μg/ml, Tryptic Soy (70 ul composition 2c)): red; Colour of media (Staphylococcus aureus; T = 15-24 h at 35° C., drug 500 μg/ml, Tryptic Soy (70 ul composition 2c)): red
